Assay results as given in PMC7481839, “Switchable foldamer ion channels with antibacterial activity” (Chemical Science, 2020).
Where a SMILES comes first, the peptide text is derived from it.

Experiment: U-tube lucigenin (chloride) transport experiment
Settings: 1 mM in chloroform, 20 mM MOPS, 100 mM NaCl, pH 7.4, 25 °C, up to 24 h, UV at 455 nm
Description: To assess if these compounds can act as cation carriers, U-tube experiments for sodium picrate transport were performed on 1, Cu(II)[1]Cl2 and Cu(II)[2]Cl2. […] Similarly, a U-tube experiment for chloride transport was performed using lucigenin.[4],[40]
5.7 Preparation of large unilamellar vesicles for CF release assays
A 50 mM 5(6)-carboxyfluorescein (CF) solution in MOPS buffer (20 mM MOPS, 100 mM NaCl, pH 7.4) was prepared by dissolving 5/6-CF in MOPS buffer, adding a sodium hydroxide (1M) solution dropwise until pH 11 was reached. The resulting solution was the slowly acidified to pH 7.4.
EYPC-cholesterol (4:1) 800 nm vesicles were prepared as described above, using the above mentioned 5(6)-carboxyfluorescein (CF) (50 mM) solution. […]
The U-tube was incubated in a water bath at 25 °C and the chloroform phase was stirred at 300 rpm during the entire experiment, ensuring efficient diffusion of any potential carrier-ion complex to the receiving phase. Aliquots (1 mL) were taken from the receiving phase and analysed for the presence of picrate by UV spectroscopy (at 356 nm). […]
Figure S11: U-tube metal picrate transport data for foldamer 1 (brown), Cu[2]Cl2 (black), Cu[1]Cl2 (green), and the control transporter, dibenzo-18-crown-6 (red). Absorbance at 356 nm. […]
Aliquots (1 mL) were taken from the receiving phase and analysed for the presence of lucigenin by UV spectroscopy (at 455 nm). […]

CC(C)(NC(=O)C(C)(C)NC(=O)C(C)(C)NC(=O)C(C)(C)NC(=O)C(C)(C)n1cc(CN(Cc2ccccn2)Cc2ccccn2)nn1)C(=O)NC(C)(C)C(=O)NC(C)(C)C(=O)NC(C)(C)C(=O)OCC[Si](C)(C)C [foldamer 2] (HELM PEPTIDE1{[CC(C)(C(=O)[*:2])n1cc(CN(Cc2ccccn2)Cc2ccccn2)nn1].[Aib].[Aib].[Aib].[Aib].[Aib].[Aib].[Aib].[C[Si](C)(C)CCO[*:1]]}$$$$V2.0)
chloride (lucigenin) transport through the organic phase: no chloride was carried through the organic phase
